The values that follow come from US12338236B2, “Benzoisothiazole and benzoisoxazole compounds for the treatment of mental disorders” (SUVEN LIFE SCIENCES LIMITED, priority 2022, dated 2025).

Structures can show the parent of a compound that is named as a salt.

The subject of the series is motor coordination. The experiment in a line: Rat rotarod assay. In kind it is in vivo. As to conditions: rats, doses of 3 & 10 mg/kg, 60 min prior to trial. On the procedure:
Example-52: Rat Rotarod Assay
The rotarod test was employed to investigate the possible effect of Example-2 on motor coordination. Twenty hours prior to the test, rats were trained to remain on revolving bar (4 rpm) of the rotarod apparatus (TSE Systems; GmHb, Germany). Animals that successfully stayed on rotating rod for 60 seconds (out of 4 trials per animal) were selected for further study. […] A single trial was carried out on the next day. Animals that were able to stay on the rotating rod for 60 seconds were chosen for further study. Animals were administered Example-2 or Vehicle 60 min prior to the trial. The latency to fall from the rotating rod was noted.
Background: In the rotarod test animals must keep their balance on a rotating rod.

Regarding `Cc1nnc(-c2csc(OCCCN3CCN(c4nsc5ccccc45)CC3)n2)o1` [Example-2, 3-(4-{3-[4-(5-Methyl-[1,3,4]oxadiazol-2-yl)-thiazol-2-yloxy]-propyl}-piperazin-1-yl)-benzo[d]isothiazole oxalate], the “Effect on motor coordination (latency to fall from rotating rod)” value is listed as “No notable effects on motor coordination”.
